Data reported in patent US9028845B2, “Chimeric immunomodulatory compounds and methods of using the same-IV” (Dynavax Technologies Corporation, priority 2001, dated 2015).

System: human PBMCs
Assay: Human PBMC cytokine response assay (IFN-γ and IFN-α in cell-free medium by ELISA), with or without cPLGA
Type: cell-based
Conditions: for IFN-a / IFN-g / IFN-a mean / IFN-g mean: Table 25; for IFN-a mean / IFN-g mean: mean of donors 28250-28253
[1] = donor 28250, polynucleotides/spacers at amounts equivalent to the CIC, spacers alone 9 uM
[2] = Table 24, mean of donors 28234-28237

Molecule | IFN-a (donor 28250) | IFN-g [1] | IFN-a (donor 28251) | IFN-g (donor 28251) | IFN-a (donor 28252) | IFN-g (donor 28252) | IFN-a (donor 28253) | IFN-g (donor 28253) | IFN-a mean | IFN-g mean | IFN-α (Table 24, donor 28234) | IFN-γ (Table 24, donor 28234) | IFN-α (Table 24, donor 28235) | IFN-γ (Table 24, donor 28235) | IFN-α (Table 24, donor 28236) | IFN-γ (Table 24, donor 28236) | IFN-α (Table 24, donor 28237) | IFN-γ (Table 24, donor 28237) | IFN-α mean [2] | IFN-γ mean [2] | also measured
OCC(O)CO [Glycerol] | 16 pg/mL | 16 pg/mL | 16 pg/mL | 12 pg/mL | 16 pg/mL | 2 pg/mL | 16 pg/mL | 1 pg/mL | 16 pg/mL | 8 pg/mL | – | – | – | – | – | – | – | – | – | – | –
5′-TCGAGAT-3′ [Compound P-13, reference compound] | 16 pg/mL | 18 pg/mL | 16 pg/mL | 13 pg/mL | 16 pg/mL | 22 pg/mL | 16 pg/mL | 1 pg/mL | 16 pg/mL | 14 pg/mL | – | – | – | – | – | – | – | – | – | – | –
5′-TCCA-3′-C3-5′-TGACGTT-3′-C3-5′-CCTGATGCT-3′ [Compound C-88] | – | – | – | – | – | – | – | – | – | – | 95 pg/mL | 5 pg/mL | 16 pg/mL | 21 pg/mL | 212 pg/mL | 17 pg/mL | 111 pg/mL | 477 pg/mL | 109 pg/mL | 130 pg/mL | –
5′-TCGTCGA-3′-HEG-5′-AACGTTC-3′-HEG-5′-TCGTCGA-3′ [Compound C-55] | – | – | – | – | – | – | – | – | – | – | – | – | – | – | – | – | – | – | – | – | IFN-α (Table 13, donor 28156): 9 pg/mL; IFN-γ (Table 13, donor 28156): 511 pg/mL; IFN-α (Table 13, donor 28157): 5 pg/mL; IFN-γ (Table 13, donor 28157): 566 pg/mL; IFN-α (Table 13, donor 28158): 63 pg/mL; IFN-γ (Table 13, donor 28158): 55 pg/mL; IFN-α (Table 13, donor 28159): 3 pg/mL; IFN-γ (Table 13, donor 28159): 186 pg/mL; IFN-α mean (Table 13, mean of donors): 20 pg/mL; IFN-γ mean (Table 13, mean of donors): 329 pg/mL
5′-TCGTCGT-3′-HEG-5′-TGTCGTT-3′-HEG-5′-TGTCGTT-3′ [Compound C-47] | – | – | – | – | – | – | – | – | – | – | – | – | – | – | – | – | – | – | – | – | IFN-α (Table 10, donor 28042): 20 pg/mL; IFN-γ (Table 10, donor 28042): 112 pg/mL; IFN-α (Table 10, donor 28043): 0 pg/mL; IFN-γ (Table 10, donor 28043): 537 pg/mL; IFN-α (Table 10, donor 28044): 0 pg/mL; IFN-γ (Table 10, donor 28044): 142 pg/mL; IFN-α (Table 10, donor 28045): 0 pg/mL; IFN-γ (Table 10, donor 28045): 17 pg/mL; IFN-α mean (Table 10, mean of donors): 5 pg/mL; IFN-γ mean (Table 10, mean of donors): 202 pg/mL
(5′-TCGTCGA-3′-HEG)2-glycerol-HEG-5′-AACGTTC-3′-HEG-5′-TCGACGT-3′ [Compound C-100] | – | – | – | – | – | – | – | – | – | – | 16 pg/mL | 27 pg/mL | 16 pg/mL | 183 pg/mL | 398 pg/mL | 490 pg/mL | 193 pg/mL | 1907 pg/mL | 156 pg/mL | 652 pg/mL | –
